The source of these data is ChEMBL document CHEMBL1268862, “Eucophylline, a Tetracyclic Vinylquinoline Alkaloid from Leuconotis eugenifolius” (J Nat Prod, 2010).

As a reminder, the IC50 is the concentration needed to halve the response being measured.

The nature of this experiment: Antiinflammatory activity in mouse J774.1 cells assessed as inhibition of LPS-induced NO production. In kind it is functional, cell-based.

Take `C=Cc1c2c(nc3cc(O)c([C@@H]4C[C@@]5(CC)CCCN6CCc7c(n4c4ccccc74)[C@H]65)cc13)N1CCC[C@](CC)(C2)C1` [LEUCOPHYLLIDINE]: the IC50 is 7.1 µM.
With `CNC(=N)NCCC[C@H](N)C(=O)O` [TILARGININE] the figure was 22 µg/mL.
